Columns and labels:
Experiment in all cases: relative viability (nuclei count vs DMSO), 5 days (fraction); higher = more cells survive
BEN = conditions: first compound 1 µM
In short: (§1)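 The day after seeding in 1536-well plates, lung cancer cell lines were treated by pin tool with a single drug, or with a fixed anchor-drug dose together with five library-drug doses (not always all listed) in √10 steps. After 5 days, a combined fix-and-stain solution (final 0.05% Triton X-100, 1% formaldehyde, 1 ug/ml Hoechst) was added. Nuclei counted on 4× images gave relative viability as treated counts over vehicle counts, reported as the median of duplicate plates.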

PC-14 = system: PC-14
In short: as §1

NCI-H1650 = system: NCI-H1650
In short: as §1

COR-L 105 = system: COR-L 105
In short: as §1

SW 900 = system: SW 900
In short: as §1

EKVX = system: EKVX
In short: as §1

CAL-12T = system: CAL-12T
In short: as §1

HARA = system: HARA
In short: as §1

NCI-H1437 = system: NCI-H1437
In short: as §1

NCI-H2170 = system: NCI-H2170
In short: as §1

201T = system: 201T
In short: as §1

LOU-NH91 = system: LOU-NH91
In short: as §1

For `O=c1cc(N2CCOCC2)oc2c(-c3cccc4c3sc3ccccc34)cccc12` + CC(=O)c1c(C)c2cnc(Nc3ccc(N4CCNCC4)cn3)nc2n(C2CCCC2)c1=O [Palbociclib] (partner 0.5 µM), the relative viability (BEN) was 0.506, the relative viability (PC-14; first compound 0.01 µM) was 0.436 and the relative viability (PC-14; first compound 0.03162 µM) was 0.479. It also gave a relative viability (PC-14; first compound 0.1 µM) of 0.541, a relative viability (PC-14; first compound 0.3162 µM) of 0.581 and a relative viability (PC-14; first compound 1 µM) of 0.596. For the same compound, the relative viability (NCI-H1650; first compound 0.01 µM) was 0.299, the relative viability (NCI-H1650; first compound 0.03162 µM) was 0.363 and the relative viability (NCI-H1650; first compound 0.1 µM) was 0.346. For the same compound, the relative viability (NCI-H1650; first compound 0.3162 µM) was 0.368, the relative viability (NCI-H1650; first compound 1 µM) was 0.317 and the relative viability (COR-L 105; first compound 0.01 µM) was 0.41. The relative viability (COR-L 105; first compound 0.03162 µM) was 0.468, the relative viability (COR-L 105; first compound 0.1 µM) was 0.438 and the relative viability (COR-L 105; first compound 0.3162 µM) was 0.409. It also gave a relative viability (COR-L 105; first compound 1 µM) of 0.386, a relative viability (SW 900; first compound 0.03162 µM) of 0.473 and a relative viability (SW 900; first compound 0.1 µM) of 0.567. For the same compound, the relative viability (SW 900; first compound 0.3162 µM) was 0.507, the relative viability (SW 900; first compound 1 µM) was 0.517 and the relative viability (EKVX; first compound 0.01 µM) was 0.376. For the same compound, the relative viability (EKVX; first compound 0.03162 µM) was 0.363, the relative viability (EKVX; first compound 0.1 µM) was 0.484 and the relative viability (EKVX; first compound 0.3162 µM) was 0.43. The relative viability (EKVX; first compound 1 µM) was 0.332, the relative viability (CAL-12T; first compound 0.01 µM) was 0.444 and the relative viability (CAL-12T; first compound 0.03162 µM) was 0.401. For the same compound, the relative viability (CAL-12T; first compound 0.1 µM) was 0.587, the relative viability (CAL-12T; first compound 0.3162 µM) was 0.528 and the relative viability (CAL-12T; first compound 1 µM) was 0.436. It also gave a relative viability (HARA; first compound 0.01 µM) of 0.253, a relative viability (HARA; first compound 0.03162 µM) of 0.252 and a relative viability (HARA; first compound 0.1 µM) of 0.201. The relative viability (HARA; first compound 0.3162 µM) was 0.278, the relative viability (HARA; first compound 1 µM) was 0.307 and the relative viability (NCI-H1437; first compound 0.01 µM) was 0.3. The relative viability (NCI-H1437; first compound 0.03162 µM) was 0.312, the relative viability (NCI-H1437; first compound 0.1 µM) was 0.282 and the relative viability (NCI-H1437; first compound 0.3162 µM) was 0.31. It also gave a relative viability (NCI-H1437; first compound 1 µM) of 0.281, a relative viability (NCI-H2170; first compound 0.01 µM) of 0.424 and a relative viability (NCI-H2170; first compound 0.03162 µM) of 0.422. The relative viability (NCI-H2170; first compound 0.1 µM) was 0.408, the relative viability (NCI-H2170; first compound 0.3162 µM) was 0.405 and the relative viability (NCI-H2170; first compound 1 µM) was 0.371. The relative viability (201T; first compound 0.01 µM) was 0.346, the relative viability (201T; first compound 0.03162 µM) was 0.356 and the relative viability (201T; first compound 0.1 µM) was 0.356. The relative viability (201T; first compound 0.3162 µM) was 0.342, the relative viability (201T; first compound 1 µM) was 0.353 and the relative viability (LOU-NH91; first compound 0.01 µM) was 0.525. It also gave a relative viability (LOU-NH91; first compound 0.03162 µM) of 0.527, a relative viability (LOU-NH91; first compound 0.1 µM) of 0.522 and a relative viability (LOU-NH91; first compound 0.3162 µM) of 0.537. For the same compound, the relative viability (LOU-NH91; first compound 1 µM) was 0.574.

Source: the supplement of paper PMC10307832
